The values below come from patent US20160193216A1 (Nimbus Iris, Inc., priority 2012, published 2016).

Broadly, the pIC50 is the negative decadic logarithm of the IC50, by convention in mol/L.

In one test the test system is Whole Blood. Nature of the test: In vitro LPS/R848-induced cytokine production assay in whole blood. The format is cell-based, human. As for the experimental part: In Vitro LPS/R848/CpG-Induced Cytokine Production Assays in hPBMC or Whole Blood
Compounds of the present invention were also studied in in vitro LPS/R848/CpG-induced cytokine production assays. Exemplary protocols follow.
[…] Cells were seeded in a 96-well plate with 130 ul/well of the cell suspension according to the plate map. 9 ul of 30 mM compound solution was added into the wells in the assigned rows, then serial solutions with 4× dilutions were made. That is, add 9 uL of 100% DMSO into each of the rest wells and take 3 uL of compound solution from the one-step higher concentration solution and mix well with the DMSO. For the second compound master plate, 196 uL of the growth medium (no serum media) were added into each of the wells and 4 uL of the compound solution from the first compound master plate was added and mixed with the media. Cells were treated for 0.5 h by adding 20 uL of the compound and the control solutions prepared in the second master plate to each well according to the plate map. […] Plates were sealed with sealing films and the plates were centrifuged at 3000 rpm at 4 degrees C. for 5 min. The supernatants were transferred, and 100 ul of working Capture antibody solution was added to each well. The plates were sealed and incubated overnight at RT. IL-6, IFN-α or TNF-α detection antibody labeled with biotin: Added 100 uL of the Detection Antibody solution to each well. Covered the plate and incubated for 2 h at RT. Added 100 uL of Streptavidin-HRP solution to each well. Covered the plate and incubate for 20 min at RT in dark. Added 100 uL of Substrate Solution to each well. Incubated for 20 min at RT in dark. Added 50 uL of Stop Solution to each well. Gently tapped the plate to ensure thorough mixing. Determined the optical density of each well immediately, using a microplate reader set to 450 nm and also read at 540 nm or 570 nm for correction if wavelength correction is not available.

In the next test the test system is THP-1 cells. Nature of the test: LPS induced cytokine (TNFα and IL8) production assay in THP-1 cells. The format is cell-based. The following applies: Homo sapiens, 300 ng/mL LPS. On the procedure: Cytokine Production Assay
Provided compounds were also assayed in an LPS (Lipopolysacharide) or R848 (TLR-7 agonist) induced cytokine (TNFα and IL8) production assay in THP-1 cells, human peripheral blood mononuclear cells (hPBMC), and whole blood. The exemplary protocol for this assay in THP-1 cells was as follows below.
THP-1 cells from ATCC (TIB-202) were cultured in RPMI Medium 1640 (Invitrogen, Cat No. A10491-01), 10% fetal bovine serum (Invitrogen, Cat No. 10099141, Lot No. 8172882) containing 100 U/mL Penicillin, 100 μg/mL streptomycin (Invitrogen, Cat No. 15140-122), and 50 uM 2-Mercaptoethanol (Invitrogen, Cat No. 21985023). LPS-EK ultra pure (Invivogen, Cat No. tlrl-peklps) was used to induce IL8 and TNFα production, that was detected in the cell culture supernatant by IL8 HTRF kit (Cisbio, Cat No. 62IL8PEB) and TNFα HTRF kit (Cisbio, Cat No. 62TNFPEB), as per manufacturer instructions. Cells were cultured in 96 well assay plates at 100,000 cells per well, and compounds diluted in final 0.3% DMSO were pre-incubated with cells for 1 hour prior to stimulation with 300 ng/mL LPS. Cytokine production in cell supernatant was measured at 5 hours for TNFα and IL8 production, and for 16 hours for IL8 production and assessment of cell viability.
The compound numbers correspond to the compound numbers in Table 1. […] “NA” stands for “not assayed.”

In a further test the target is T1, IRAK4 (Homo sapiens, UniProt Q9NWZ3).
T1 sequence (Q9NWZ3 1-460): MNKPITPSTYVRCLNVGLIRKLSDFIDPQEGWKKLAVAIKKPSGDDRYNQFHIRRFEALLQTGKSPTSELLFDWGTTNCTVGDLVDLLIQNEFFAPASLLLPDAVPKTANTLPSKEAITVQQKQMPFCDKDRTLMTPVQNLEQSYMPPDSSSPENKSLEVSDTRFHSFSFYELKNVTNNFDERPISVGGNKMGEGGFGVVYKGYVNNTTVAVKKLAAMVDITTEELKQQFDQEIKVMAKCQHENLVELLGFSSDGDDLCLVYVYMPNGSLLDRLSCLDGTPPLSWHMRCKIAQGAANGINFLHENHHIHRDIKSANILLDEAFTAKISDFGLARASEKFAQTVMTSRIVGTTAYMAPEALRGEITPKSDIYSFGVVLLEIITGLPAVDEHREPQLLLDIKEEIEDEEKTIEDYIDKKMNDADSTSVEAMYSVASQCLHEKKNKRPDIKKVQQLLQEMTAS
Nature of the test: IRAK-4 activity inhibition assay (Caliper). In kind it is biochemical. The following applies: 37 μM ATP, 3.5 nM IRAK4.

Setting [1] is: Homo sapiens, LPS 0.1 ug/mL, read-out: TNF-α production IC50.
The mark [2] stands for this setting: Homo sapiens, R848 1 uM, read-out: IFN-α production IC50.
Setting [3] is: R848 1 uM, read-out: TNF-α production IC50.

Each structure is given as a SMILES string. pIC50: −log10 of the molar value. Where two headings read alike, the source gives them in different places.

With `Cn1cc(Nc2nc(O[C@H]3CC[C@H](N4CCOCC4)CC3)c3c4c(sc3n2)CC[C@@H]4CC(N)=O)cn1` [Compound I-235], the pIC50 with Whole Blood (setting [1]) was no more than 6.00; in the test with Whole Blood (setting [2]), no more than 6.00; in the test on THP-1 cells (read-out: IL8 production IC50), no less than 6.30; in the test on THP-1 cells (read-out: TNFα production IC50), no less than 6.30.
Take `CCN[C@H]1CC[C@H](Oc2ncnc3sc4c(c23)[C@@H](CC(N)=O)CC4)CC1` [Compound I-85, 2-((R)-4-(((1r,4R)-4-(ethylamino)cyclohexyl)oxy)-6,7-dihydro-5H-cyclopenta[4,5]thieno[2,3-d]pyrimidin-5-yl)acetamide]: the pIC50 with Whole Blood (setting [1]) was no more than 6.00; on IRAK4, greater than 5.30; in the test with THP-1 cells (read-out: IL8 production IC50) it was 6.00 to 6.30; with THP-1 cells (read-out: TNFα production IC50) it was 6.00 to 6.30.
With `NC(=O)[C@H]1CCc2sc3ncnc(O[C@H]4CC[C@H](N5CCOCC5)CC4)c3c2C1` [Compound I-220, (12S)-3-[[4-(morpholin-4-yl)cyclohexyl]oxy]-8-thia-4,6-diazatricyclo[7.4.0.0[2,7]]trideca-1(9),2(7),3,5-tetraene-12-carboxamide], the pIC50 in the test with Whole Blood (setting [1]) is no more than 6.00; in the test on Whole Blood (setting [2]), no more than 6.00; with Whole Blood (setting [3]), no more than 6.00; against IRAK4, greater than 5.30; in the test with THP-1 cells (read-out: IL8 production IC50), no less than 6.30; in the test with THP-1 cells (read-out: TNFα production IC50), no less than 6.30.
Turning to `CN(C)[C@H]1CC[C@H](Oc2ncnc3sc4c(c23)C[C@@H](C(N)=O)CC4)CC1` [Compound I-233, (12S)-3-[[4-(dimethylamino)cyclohexyl]oxy]-8-thia-4,6-diazatricyclo[7.4.0.0[2,7]]trideca-1(9),2(7),3,5-tetraene-12-carboxamide], the pIC50 in the test on Whole Blood (setting [1]) was no more than 6.00; in the test on Whole Blood (setting [2]), no more than 6.00; with Whole Blood (setting [3]), no more than 6.00; against IRAK4, greater than 5.30; in the test with THP-1 cells (read-out: IL8 production IC50), no less than 6.30; in the test with THP-1 cells (read-out: TNFα production IC50) it was no less than 6.30.
With `CN(CC(=O)N1CCCC1)[C@H]1CC[C@H](Oc2ncnc3sc4c(c23)[C@@H](CC(N)=O)CC4)CC1` [Compound I-73, 2-[(3R)-12-[(4-[methyl[2-oxo-2-(pyrrolidin-1-yl)ethyl]amino]cyclohexyl)oxy]-7-thia-9,11-diazatricyclo[6.4.0.0[2,6]]dodeca-1(8),2(6),9,11-tetraen-3-yl]acetamide], the negative-log IC50 (pIC50) in the test on Whole Blood (setting [1]) was no more than 6.00; on IRAK4 it was greater than 5.30; in the test with THP-1 cells (read-out: IL8 production IC50), 5.30 to 6.00; with THP-1 cells (read-out: TNFα production IC50) it was 5.30 to 6.00.
On to `Cn1cc(Nc2nc(O[C@H]3CC[C@H](N(C)C)CC3)c3c4c(sc3n2)CCC4CC(N)=O)cn1` (stereo in doubt) [Compound I-224, 2-[(3S)-12-[[4-(dimethylamino)cyclohexyl]oxy]-10-[(1-methyl-1H-pyrazol-4-yl)amino]-7-thia-9,11-diazatricyclo[6.4.0.0[2,6]]dodeca-1(8),2(6),9,11-tetraen-3-yl]acetamide], for which the pIC50 was no more than 6.00 with Whole Blood (setting [1]), no more than 6.00 in the test with Whole Blood (setting [2]), no less than 6.30 in the test on THP-1 cells (read-out: IL8 production IC50) and no less than 6.30 in the test on THP-1 cells (read-out: TNFα production IC50).
For `NC(=O)C[C@H]1CCc2sc3ncnc(O[C@H]4CC[C@H](N5CCCC5)CC4)c3c21` [Compound I-105, 2-[(3R)-12-[[4-(pyrrolidin-1-yl)cyclohexyl]oxy]-7-thia-9, 11-diazatricyclo[6.4.0.0[2,6]]dodeca-1(8),2(6),9, 11-tetraen-3-yl]acetamide], the pIC50 in the test on Whole Blood (setting [1]) was no more than 6.00; at IRAK4, greater than 5.30; in the test with THP-1 cells (read-out: IL8 production IC50) it was no less than 6.30; with THP-1 cells (read-out: TNFα production IC50), 6.00 to 6.30.
Regarding `CN(CC(=O)N1CCCC1)[C@H]1CC[C@H](Oc2ncnc3sc4c(c23)[C@@H](CCO)CC4)CC1` [Compound I-90, 2-(((1R,4r)-4-(((R)-5-(2-hydroxyethyl)-6,7-dihydro-5H-cyclopenta[4,5]thieno[2,3-d]pyrimidin-4-yl)oxy)cyclohexyl)(methyl)amino)-1-(pyrrolidin-1-yl)ethanone], the values for the pIC50 at IRAK4 and in the test with THP-1 cells (read-out: TNFα production IC50) were greater than 5.30 and 5.30 to 6.00, respectively.
On to `CN(CC(=O)N1CCCC1)[C@H]1CC[C@H](Oc2ncnc3sc4c(c23)[C@@H](C[C@H](O)C(N)=O)CC4)CC1` [Compound I-149, (2S)-2-hydroxy-3-[(3R)-12-[(4-[methyl[2-oxo-2-(pyrrolidin-1-yl)ethyl]amino]cyclohexyl)oxy]-7-thia-9,11-diazatricyclo[6.4.0.0̂[2,6]]dodeca-1(8),2(6),9,11-tetraen-3-yl]propanamide], for which the figures for the pIC50 against IRAK4, in the test with THP-1 cells (read-out: IL8 production IC50) and in the test on THP-1 cells (read-out: TNFα production IC50) were greater than 5.30, 5.30 to 6.00 and 5.30 to 6.00, respectively.
For `C[C@H](O)C[C@H]1CCc2sc3ncnc(O[C@H]4CC[C@H](N5CCOCC5)CC4)c3c21` [Compound I-83, (S)-1-((R)-4-(((1 r,4R)-4-morpholinocyclohexyl)oxy)-6,7-dihydro-5H-cyclopenta[4,5]thieno[2,3-d]pyrimidin-5-yl)propan-2-ol], the pIC50 against IRAK4 was greater than 5.30; in the test with THP-1 cells (read-out: TNFα production IC50) it was 6.00 to 6.30.
Turning to `[2H]C1([2H])c2sc3ncnc(O[C@H]4CC[C@H](N5CCOCC5)CC4)c3c2[C@@H](CC(N)=O)C1([2H])[2H]` [Compound I-188, 2-[(3R)-12-[[4-(morpholin-4-yl)cyclohexyl]oxy](4,4,5,5-d4)-7-thia-9, 11-diazatricyclo[6.4.0.0[2,6]]dodeca-1(8),2(6),9, 11-tetraen-3-yl]acetamide-d4], the negative-log IC50 (pIC50) on IRAK4 was greater than 5.30; with THP-1 cells (read-out: IL8 production IC50), no less than 6.30; with THP-1 cells (read-out: TNFα production IC50), 6.00 to 6.30.
Taken in the same sequence, the figures for `NC(=O)C[C@H]1CCc2sc3ncnc(O[C@H]4CC[C@H](N5CCCCC5)CC4)c3c21` [Compound I-214, 2-[(3R)-12-[[4-(piperidin-1-yl)cyclohexyl]oxy]-7-thia-9,11-diazatricyclo[6.4.0.0[2,6]]dodeca-1(8),2(6),9,11-tetraen-3-yl]acetamide] were greater than 5.30, no less than 6.30 and no less than 6.30.
For the compound `CN(C)[C@H]1CC[C@H](Nc2ncnc3sc4c(c23)C[C@@H](C(N)=O)CC4)CC1` [Compound I-230, (12S)-3-[[4-(dimethylamino)cyclohexyl]amino]-8-thia-4,6-diazatricyclo[7.4.0.0[2,7]]trideca-1(9),2(7),3,5-tetraene-12-carboxamide], the pIC50 was greater than 5.30 against IRAK4, no more than 5.30 with THP-1 cells (read-out: IL8 production IC50) and no more than 5.30 in the test on THP-1 cells (read-out: TNFα production IC50).
As for `CN(C)[C@H]1CC[C@H](Oc2ncnc3sc4c(c23)[C@@H](CC(C#N)C(N)=O)CC4)CC1` (mixture of isomers) [Compound I-51, 2-cyano-3-(12-[[4-(dimethylamino)cyclohexyl]oxy]-7-thia-9,11-diazatricyclo[6.4.0.0[2,6]]dodeca-1(12),2(6),8,10-tetraen-3-yl)propanamide], the pIC50 on IRAK4 was greater than 5.30; in the test on THP-1 cells (read-out: IL8 production IC50) it was 6.00 to 6.30; with THP-1 cells (read-out: TNFα production IC50), 6.00 to 6.30.
